Assay results published in paper PMC10819767, “An ADAM10 Exosite Inhibitor Is Efficacious in an In Vivo Collagen-Induced Arthritis Model” (Pharmaceuticals, 2024).

Experiments:
ADAM17 = biological target: T1, ADAM17 (Homo sapiens, UniProt P78536); test: ADAM17 enzyme assay with glycosylated substrate DM2; type: biochemical
T1 construct: purchased R & D Systems (Minneapolis, MN, USA)
Experimental: ADAM10 and ADAM17 assays. Both assays were performed as published previously by us. Briefly, both assays followed the same general protocol. In total, 5 μL of the 2× enzyme solution (20 nM) in an assay buffer (10 mM Hepes, 0.001% Brij-35, pH 7.5) were added to solid bottom black 384 plates (Nunc, ThermoFisher, Waltham, MA, USA, cat# 264705). Next, test compounds and pharmacological controls were added to the corresponding wells using a 384-pin tool device (V & P Scientific, San Diego, CA, USA). After 60 min of incubation at RT, the reactions were started via the addition of 5 μL of the 2× solutions of glycosylated substrate DM2 (20 μM). The reactions were incubated at RT for 2 h, after which the fluorescence was measured using a Biotek H1 multimode microplate imager (λexcitation = 360 nm, λemission = 460 nm). IC50 values were calculated by fitting normalized data to the sigmoidal log vs. the response equation utilizing a non-linear regression analysis from GraphPad Prizm 9.

C-reactive protein (CRP) = test: RA serum marker ELISA, CRP, CIA mice; type: in vivo, C57 BL/6 mice
Experimental: The sample size for therapeutic evaluation was calculated using power analysis based on experimental data from similar studies. In a two-sided test and setting the α value at 0.05 and desired power at 0.95, the sample size turned out to be 5 per group. We also expected deaths during the experiments; therefore, we used the formula Nt = N/1-q, where Nt is the number of mice initially used, N is the number required at the end of the study, and q is the proportion of attrition, which is generally 10%. Thus, at the end of the study period, we expected to have data from at least 6 mice per group, which is enough to attain statistical significance if it exists. Data were analyzed using a one-way ANOVA followed by Dunnett’s test compared with the vehicle control. At the end of the study, the mice were anesthetized and sacrificed using CO2 euthanasia. The hind paws of the mice were subjected to a histopathological examination, and the serum was analyzed for CRP, TNF-α, IL-6, and IL-10, as described in the below sections.
RA serum marker analysis. Blood was collected from the tail vein, and 100 µL was used for the assays. All assays were conducted using the manufacturer’s instructions for the respective assay kits. The following assay kits were purchased: Mouse TNF-α GENLISA™ ELISA (Krishgen BioSystems cat#KB2145, Mumbai, India), Mouse IL-10 GENLISA™ ELISA (Krishgen BioSystems cat#KB2072), Mouse hsC-Reactive Protein, hs-CRP GENLISA™ ELISA (Krishgen BioSystems cat#KLM0318), Mouse IL-6 GENLISA™ ELISA (Krishgen BioSystems cat#KB2068).

[1] = test system: collagen-induced arthritis (CIA) model; test: CIA mouse model: clinical arthritis score and paw swelling; type: in vivo, C57 BL/6 mice; conditions: 10, 30, 50 mg/kg/day; days 1, 14, 21, 28
muscarinic (CHRM1) = test system: muscarinic (CHRM1); parameters: method as in PMID 34817776; conditions: cited from earlier work
T-cell receptors = test system: T-cell receptors; parameters: method as in PubChem bioassay 504894; conditions: ref PubChem bioassay 504894; cited from earlier work
PBMCs and neutrophils = test system: PBMCs and neutrophils; parameters: method as in PMID 28442704; conditions: cited from earlier work

T1 sequence (P78536 215-824, species assumed): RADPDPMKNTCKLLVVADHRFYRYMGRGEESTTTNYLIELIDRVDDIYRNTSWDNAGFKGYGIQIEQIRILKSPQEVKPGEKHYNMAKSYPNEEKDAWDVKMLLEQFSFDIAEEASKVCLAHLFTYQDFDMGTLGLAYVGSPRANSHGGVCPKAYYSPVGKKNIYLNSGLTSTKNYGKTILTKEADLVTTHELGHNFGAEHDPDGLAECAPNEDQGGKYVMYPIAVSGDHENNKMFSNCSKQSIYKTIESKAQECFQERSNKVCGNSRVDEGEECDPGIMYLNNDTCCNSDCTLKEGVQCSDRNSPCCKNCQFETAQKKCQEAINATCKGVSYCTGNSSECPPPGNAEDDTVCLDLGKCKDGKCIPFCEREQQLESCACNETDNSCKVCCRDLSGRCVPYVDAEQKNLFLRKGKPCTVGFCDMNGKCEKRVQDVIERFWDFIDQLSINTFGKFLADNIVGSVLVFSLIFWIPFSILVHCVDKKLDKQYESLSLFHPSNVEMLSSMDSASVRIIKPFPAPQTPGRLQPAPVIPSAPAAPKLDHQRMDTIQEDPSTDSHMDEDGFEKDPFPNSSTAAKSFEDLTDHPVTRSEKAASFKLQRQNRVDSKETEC

Structure (SMILES): COc1cccc(C(=O)NNC(=O)C(=O)Nc2ccc(C)c(Cl)c2)c1 [CID 3117694]
- IC50 (ADAM17): > 100 µM
- concentration of CRP in the blood of arthritic mice (C-reactive protein (CRP); 30 and 50 mg/kg, vs vehicle control): lowers
- CRP blood level vs healthy control (C-reactive protein (CRP); CID 3117694 50 mg/kg/day, indomethacin 2.5 mg/kg): decreased the markers to the level of the healthy control
- paw swelling (in words) [1]: time- and dose-dependently decrease paw swelling
- activity against CHRM1 (muscarinic (CHRM1)): inactive
- activity in assay for activators of T-cell receptors (T-cell receptors): inactivity
- recruitment of PBMCs and neutrophils (PBMCs and neutrophils): can inhibit
